According to PMC11055700 (Chemicke Zvesti, 2024):
Read-outs that look alike come from different tables or passages of the source.

Key:
[1] = target: T1, SARS-CoV-2 Spike-RBD (ancestral, WT) / ACE2 (Homo sapiens, UniProt Q9BYF1); assay: biochemical; format: binding
T1 construct: a SARS-CoV-2 RBD protein containing a C-terminal His tag; a full-length ACE2 peptide with a C-terminal Fc tag; purchased Sino Biological

[2] = target: T2, SARS-CoV-2 Spike-RBD (lambda) / ACE2 (Homo sapiens, UniProt Q9BYF1); assay: biochemical; format: binding
T2 construct: a SARS-CoV-2 RBD protein containing a C-terminal His tag; a full-length ACE2 peptide with a C-terminal Fc tag; purchased Sino Biological
T2 sequence (Q9BYF1 18-740): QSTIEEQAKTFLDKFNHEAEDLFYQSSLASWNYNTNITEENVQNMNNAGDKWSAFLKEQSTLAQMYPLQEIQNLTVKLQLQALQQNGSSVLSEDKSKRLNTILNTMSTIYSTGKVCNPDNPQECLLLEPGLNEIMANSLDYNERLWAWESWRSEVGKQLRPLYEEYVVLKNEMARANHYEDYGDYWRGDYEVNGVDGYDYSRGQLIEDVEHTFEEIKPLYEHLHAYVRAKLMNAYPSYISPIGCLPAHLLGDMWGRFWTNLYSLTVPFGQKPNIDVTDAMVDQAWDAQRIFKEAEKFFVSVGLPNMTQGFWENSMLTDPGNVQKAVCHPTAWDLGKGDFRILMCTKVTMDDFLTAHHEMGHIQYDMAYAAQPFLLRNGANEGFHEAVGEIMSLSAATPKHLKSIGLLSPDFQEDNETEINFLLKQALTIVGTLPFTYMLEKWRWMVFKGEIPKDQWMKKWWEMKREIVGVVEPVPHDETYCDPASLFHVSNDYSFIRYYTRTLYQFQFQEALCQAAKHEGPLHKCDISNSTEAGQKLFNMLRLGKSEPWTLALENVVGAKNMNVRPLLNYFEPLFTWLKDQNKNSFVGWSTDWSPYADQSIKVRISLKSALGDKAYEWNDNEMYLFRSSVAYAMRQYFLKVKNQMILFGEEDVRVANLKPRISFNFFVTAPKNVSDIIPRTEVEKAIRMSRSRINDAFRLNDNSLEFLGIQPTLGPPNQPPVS

T1 sequence (Q9BYF1 18-740): as above

Compound	IC50 ([1]; IC50 spike RBD/ACE2 binding, WT RBD sequence) [µM]	fold difference in IC50 for any variant versus WT RBD [2] [fold]	IC50 ([1]; read-out: IC50 spike RBD/ACE2 binding, WT RBD sequence) [µM]
O=C1Nc2ccc(Cl)cc2C1=NNc1ccc([N+](=O)[O-])cc1[N+](=O)[O-] [H2L, 5-chloro-3-(2-(2,4-dinitrophenyl)hydrazono)indolin-2-one]	0.448	≤ 1.4	
REGN10933			0.0013
